Reference: US20110312941A1, “1,4-DISUBSTITUTED PIPERIDINES AS VASOPRESSIN RECEPTOR VIA ANTAGONISTS” (VANTIA LIMITED, priority 2009, published 2011)

The molecules below were run against T1, cloned human V1a receptor (Homo sapiens, UniProt P37288) (assay: in vitro functional calcium mobilisation assay (FLIPR), antagonist activity, 1321N1 cells, 250 pM AVP). Details: functional pKi derived from pIC50 (Equation 1), FLIPR Ca2+ mobilisation, 1321N1 cells expressing cloned human V1a receptor, read-out: Mean fpKi (Human V1a) (converted).
T1 construct: host or cells: human brain astrocytoma 1321N1 cells
Format: cell-based
Description: The primary assay which may be used to determine the ability of the compounds of formula (1) to inhibit the vasopressin V1a receptor is an in vitro functional calcium mobilisation assay (FLIPR) that measures antagonist activity at a cloned human V1a receptor. The assay is described below.
The antagonist activity of compounds of formula (1) were determined in a Calcium (Ca2+) mobilisation assay using whole cells (human brain astrocytoma 1321N1 cells, ex Perkin Elmer) genetically modified to stably express a cloned human V1a receptor. Dose response curves were determined by displacement of a single concentration of agonist (250 pM AVP, ex Sigma) with increasing concentrations of compound. A pIC50 value is determined by non-linear regression to a 4-parameter logistic equation and a functional pKi (fpKi) derived using Equation 1.
where A=agonist single conc, and A50=the agonist EC50.

T1 sequence (P37288 whole entry): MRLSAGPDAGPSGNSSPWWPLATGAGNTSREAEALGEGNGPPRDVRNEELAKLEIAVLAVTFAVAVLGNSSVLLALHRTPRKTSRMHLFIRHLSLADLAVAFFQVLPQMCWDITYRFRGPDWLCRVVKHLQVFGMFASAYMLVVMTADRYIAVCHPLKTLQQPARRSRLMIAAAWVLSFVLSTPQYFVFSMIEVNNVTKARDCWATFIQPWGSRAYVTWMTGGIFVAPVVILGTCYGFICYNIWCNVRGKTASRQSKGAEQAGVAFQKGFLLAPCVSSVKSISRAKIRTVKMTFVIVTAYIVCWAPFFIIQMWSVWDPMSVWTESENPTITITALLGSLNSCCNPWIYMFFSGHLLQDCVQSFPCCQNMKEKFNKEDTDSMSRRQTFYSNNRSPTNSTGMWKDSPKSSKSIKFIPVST

| Structure (SMILES) | Ki [nM] |
| --- | --- |
| CCc1nc2c([nH]1)-c1cc(Cl)ccc1N(C(=O)C1CCN(c3ccccn3)CC1)CC2 [Example 46] | 13.5 |
| CCCc1nc2c([nH]1)-c1cc(Cl)ccc1N(C(=O)C1CCN(c3ccccn3)CC1)CC2 [Example 47] | 11.7 |
| O=C(C1CCN(c2ccccn2)CC1)N1CCc2nc(C3CC3)[nH]c2-c2cc(Cl)ccc21 [Example 48] | 10.2 |
| O=C(C1CCN(c2ccccn2)CC1)N1CCc2nc(C3CCCCC3)[nH]c2-c2cc(Cl)ccc21 [Example 49] | 23.4 |
| O=C(C1CCN(c2ccccn2)CC1)N1CCc2nc(N3CCCCC3)[nH]c2-c2cc(Cl)ccc21 [Example 50] | 24.5 |
| CN1CCN(c2nc3c([nH]2)-c2cc(Cl)ccc2N(C(=O)C2CCN(c4ccccn4)CC2)CC3)CC1 [Example 51] | 17.4 |
| O=C(C1CCN(c2ccccn2)CC1)N1CCc2nc(-c3cccc(F)c3)[nH]c2-c2cc(Cl)ccc21 [Example 55] | 97.7 |
| O=C(C1CCN(c2ccccn2)CC1)N1CCc2nc(Cc3ccccc3)[nH]c2-c2cc(Cl)ccc21 [Example 56] | 79.4 |
| O=C(C1CCN(c2ccccn2)CC1)N1CCc2nc(N3CCOCC3)[nH]c2-c2cc(Cl)ccc21 [Example 57] | 2.51 |
| Cc1ccc(N2CCC(C(=O)N3CCc4nc(N5CCOCC5)[nH]c4-c4cc(Cl)ccc43)CC2)nc1 [Example 59] | 0.794 |
| Cc1cccc(N2CCC(C(=O)N3CCc4nc(N5CCOCC5)[nH]c4-c4ccccc43)CC2)n1 [Example 60] | 12.9 |
| CCc1nc2c([nH]1)-c1cc(C)ccc1N(C(=O)C1CCN(c3cccc(C)n3)CC1)CC2 [Example 61] | 7.41 |
| CCCc1nc2c([nH]1)-c1cc(C)ccc1N(C(=O)C1CCN(c3cccc(C)n3)CC1)CC2 [Example 62] | 7.41 |
| COc1cccc(N2CCC(C(=O)N3CCc4nc(N5CCOCC5)[nH]c4-c4cc(C)ccc43)CC2)n1 [Example 64] | 6.31 |
| Cc1ccc2c(c1)-c1[nH]c(C3CCOCC3)nc1CCN2C(=O)C1CCN(c2cccc(C)n2)CC1 [Example 65] | 7.59 |
| Cc1cccc(N2CCC(C(=O)N3CCc4nc(N5CCOCC5)[nH]c4-c4cc(Cl)ccc43)CC2)n1 [Example 67] | 1.35 |
| Cc1ccc2c(c1)-c1[nH]c(N3CCOCC3)nc1CCN2C(=O)C1CCN(c2cnccc2C)CC1 [Example 69] | 13.8 |
| Cc1cncc(N2CCC(C(=O)N3CCc4nc(N5CCOCC5)[nH]c4-c4cc(C)ccc43)CC2)c1 [Example 70] | 6.61 |
| Cc1ccc2c(c1)-c1[nH]c(N3CCOCC3)nc1CCN2C(=O)C1CCN(c2cccnc2C)CC1 [Example 71] | 16.6 |
| Cc1nc2c([nH]1)-c1cc(Cl)ccc1N(C(=O)C1CCN(c3ccccc3)CC1)CC2 [Example 72] | 9.12 |
| CCCc1nc2c([nH]1)-c1cc(Cl)ccc1N(C(=O)C1CCN(c3ccccc3)CC1)CC2 [Example 74] | 15.1 |
| O=C(C1CCN(c2ccccc2)CC1)N1CCc2nc(C3CC3)[nH]c2-c2cc(Cl)ccc21 [Example 75] | 11 |

| Structure (SMILES) | Ki [nM] |
| --- | --- |
| CN1CCN(c2nc3c([nH]2)-c2cc(Cl)ccc2N(C(=O)C2CCN(c4ccccc4)CC2)CC3)CC1 [Example 78] | 8.71 |
| O=C(C1CCN(c2ccccc2)CC1)N1CCc2nc(-c3ccccc3)[nH]c2-c2cc(Cl)ccc21 [Example 79] | 77.6 |
| O=C(C1CCN(c2ccccc2)CC1)N1CCc2nc(Cc3ccccc3)[nH]c2-c2cc(Cl)ccc21 [Example 82] | 42.7 |
| Cc1nc2c([nH]1)-c1cc(Cl)ccc1N(C(=O)C1CCN(c3ccccc3F)CC1)CC2 [Example 83] | 26.3 |
| Cc1nc2c([nH]1)-c1cc(Cl)ccc1N(C(=O)C1CCN(c3cccc(F)c3)CC1)CC2 [Example 84] | 38 |
| Cc1nc2c([nH]1)-c1cc(Cl)ccc1N(C(=O)C1CCN(c3cccc(Cl)c3)CC1)CC2 [Example 87] | 69.2 |
| Cc1nc2c([nH]1)-c1cc(Cl)ccc1N(C(=O)C1CCN(c3ccccc3C)CC1)CC2 [Example 89] | 25.7 |
| COc1ccccc1N1CCC(C(=O)N2CCc3nc(C)[nH]c3-c3cc(Cl)ccc32)CC1 [Example 92] | 22.9 |
| COc1cccc(N2CCC(C(=O)N3CCc4nc(C)[nH]c4-c4cc(Cl)ccc43)CC2)c1 [Example 93] | 2.51 |
| Cc1nc2c([nH]1)-c1cc(Cl)ccc1N(C(=O)C1CCN(c3ccc(C(C)C)cc3)CC1)CC2 [Example 97] | 22.4 |
| Cn1ncc2c1Nc1ccccc1N(C(=O)C1CCN(c3ncccn3)CC1)C2 [Example 98] | 141 |
| O=C(C1CCN(c2nccc(C(F)(F)F)n2)CC1)N1Cc2cnn(C3CCCCC3)c2Nc2ccccc21 [Example 99] | 35.5 |
| CCn1ncc2c1Nc1cc(F)ccc1N(C(=O)C1CCN(c3nccc(C(F)(F)F)n3)CC1)C2 [Example 101, (3-Ethyl-6-fluoro-4,10-dihydro-3H-2,3,4,9-tetraaza-benzo[f]azulen-9-yl)-[1-(4-trifluoromethyl-pyrimidin-2-yl)-piperidin-4-yl]-methanone] | 575 |
| CCc1cnc(N2CCC(C(=O)N3Cc4cnn(-c5ccccc5)c4Nc4cc(Cl)ccc43)CC2)nc1 [Example 105] | 13.8 |
| Cn1ncc2c1Nc1ccccc1N(C(=O)C1CCN(c3ccccn3)CC1)C2 [Example 106] | 12.6 |
| Cc1ccc2c(c1)Nc1c(cnn1C)CN2C(=O)C1CCN(c2ccccn2)CC1 [Example 109] | 12.9 |
| Cc1ccc2c(c1)Nc1c(cnn1C)CN2C(=O)C1CCN(c2ncccc2C)CC1 [Example 110] | 4.57 |
| Cc1ccnc(N2CCC(C(=O)N3Cc4cnn(C)c4Nc4cc(C)ccc43)CC2)c1 [Example 111] | 2.4 |
| Cc1ccc(N2CCC(C(=O)N3Cc4cnn(C)c4Nc4cc(C)ccc43)CC2)nc1 [Example 112] | 2.82 |
| COc1cccnc1N1CCC(C(=O)N2Cc3cnn(C)c3Nc3cc(C)ccc32)CC1 [Example 113] | 30.2 |
| Cc1ccc(N2CCC(C(=O)N3Cc4cnn(Cc5ccccc5)c4Nc4cc(C)ccc43)CC2)nc1 [Example 114] | 20 |

Results, then the molecule that gave them:

| Ki [nM] | Structure (SMILES) |
| --- | --- |
| 1.1 | Cc1ccc(N2CCC(C(=O)N3CCc4nc(N5CCN(C)CC5)[nH]c4-c4cc(Cl)ccc43)CC2)nc1 [Example 52] |
| 64.6 | O=C(C1CCN(c2ccccn2)CC1)N1CCc2nc(-c3ccccc3)[nH]c2-c2cc(Cl)ccc21 [Example 53] |
| 75.9 | O=C(C1CCN(c2ccccn2)CC1)N1CCc2nc(-c3ccccc3F)[nH]c2-c2cc(Cl)ccc21 [Example 54] |
| 0.646 | Cc1ccnc(N2CCC(C(=O)N3CCc4nc(N5CCOCC5)[nH]c4-c4cc(Cl)ccc43)CC2)c1 [Example 58] |
| 1.86 | Cc1ccc2c(c1)-c1[nH]c(N3CCOCC3)nc1CCN2C(=O)C1CCN(c2cccc(C)n2)CC1 [Example 63] |
| 30.9 | COc1cccc(N2CCC(C(=O)N3CCc4nc(C5CCOCC5)[nH]c4-c4cc(C)ccc43)CC2)n1 [Example 66] |
| 1.91 | COc1cccc(N2CCC(C(=O)N3CCc4nc(N5CCOCC5)[nH]c4-c4cc(Cl)ccc43)CC2)n1 [Example 68] |
| 6.17 | CCc1nc2c([nH]1)-c1cc(Cl)ccc1N(C(=O)C1CCN(c3ccccc3)CC1)CC2 [Example 73] |
| 28.2 | O=C(C1CCN(c2ccccc2)CC1)N1CCc2nc(C3CCCCC3)[nH]c2-c2cc(Cl)ccc21 [Example 76] |
| 18.2 | O=C(C1CCN(c2ccccc2)CC1)N1CCc2nc(N3CCCCC3)[nH]c2-c2cc(Cl)ccc21 [Example 77] |
| 81.3 | O=C(C1CCN(c2ccccc2)CC1)N1CCc2nc(-c3ccccc3F)[nH]c2-c2cc(Cl)ccc21 [Example 80] |
| 93.3 | O=C(C1CCN(c2ccccc2)CC1)N1CCc2nc(-c3cccc(F)c3)[nH]c2-c2cc(Cl)ccc21 [Example 81] |
| 11 | Cc1nc2c([nH]1)-c1cc(Cl)ccc1N(C(=O)C1CCN(c3ccc(F)cc3)CC1)CC2 [Example 85] |
| 31.6 | Cc1nc2c([nH]1)-c1cc(Cl)ccc1N(C(=O)C1CCN(c3ccccc3Cl)CC1)CC2 [Example 86] |
| 6.17 | Cc1nc2c([nH]1)-c1cc(Cl)ccc1N(C(=O)C1CCN(c3ccc(Cl)cc3)CC1)CC2 [Example 88] |
| 9.55 | Cc1cccc(N2CCC(C(=O)N3CCc4nc(C)[nH]c4-c4cc(Cl)ccc43)CC2)c1 [Example 90] |
| 1.26 | Cc1ccc(N2CCC(C(=O)N3CCc4nc(C)[nH]c4-c4cc(Cl)ccc43)CC2)cc1 [Example 91] |
| 16.2 | COc1ccc(N2CCC(C(=O)N3CCc4nc(C)[nH]c4-c4cc(Cl)ccc43)CC2)cc1 [Example 94] |
| 3.16 | CCc1ccc(N2CCC(C(=O)N3CCc4nc(C)[nH]c4-c4cc(Cl)ccc43)CC2)cc1 [Example 95] |
| 13.5 | CCCc1ccc(N2CCC(C(=O)N3CCc4nc(C)[nH]c4-c4cc(Cl)ccc43)CC2)cc1 [Example 96] |
| 145 | Cn1ncc2c1Nc1cc(F)ccc1N(C(=O)C1CCN(c3ncccn3)CC1)C2 [Example 100] |
| 151 | Cc1ccc2c(c1)Nc1c(cnn1C)CN2C(=O)C1CCN(c2ncccn2)CC1 [Example 102] |
| 75.9 | Cn1ncc2c1Nc1cc(Cl)ccc1N(C(=O)C1CCN(c3ncccn3)CC1)C2 [Example 103, (6-Chloro-3-methyl-4,10-dihydro-3H-2,3,4,9-tetraaza-benzo[f]azulen-9-yl)-(1-pyrimidin-2-yl-piperidin-4-yl)-methanone] |
| 14.1 | O=C(C1CCN(c2ncccn2)CC1)N1Cc2cnn(-c3ccccc3)c2Nc2cc(Cl)ccc21 [Example 104] |
| 1.91 | CCn1ncc2c1Nc1cc(F)ccc1N(C(=O)C1CCN(c3ccc(C)cn3)CC1)C2 [Example 107] |
| 5.37 | Cc1ccc(N2CCC(C(=O)N3Cc4cnn(C(C)(C)C)c4Nc4cc(F)ccc43)CC2)nc1 [Example 108] |
